According to patent publication US4599204A, “Oxalylamides useful as dental antiplaque agents and inhibitors of connective tissue destruction” (American Cyanamid Company, priority 1985, dated 1986):
Where a name gives a salt, the structure may show the parent alone.

Experiments:
[1] = system: corneal ulceration; settings: human; cited from earlier work
[2] = system: corneal ulceration; settings: alkali burned rabbit, applied to the eye; cited from earlier work
[3] = system: collagenase; settings: literature / U.S. Pat. No. 4,297,372; cited from earlier work
[4] = molecular target: T1, human skin fibroblast collagenase (Homo sapiens, UniProt P03956); assay: Collagenase Assay, Test Code 006: degradation of 14C-labeled native collagen fibrils by collagenase; assay type: biochemical; settings: ratio of weight (μg) for 50% inhibition over that of 6,6'-[ureylenebis(m-phenylenecarbonylimino)]bis[4-hydroxy-2-naphthalenesulfonic acid]disodium salt; test conc.: 30 μg/ml; 37° C., 16 hours; >1 = less active
T1 construct: endogenous in cells; host or cells: human skin fibroblasts
T1 sequence (P03956 100-469): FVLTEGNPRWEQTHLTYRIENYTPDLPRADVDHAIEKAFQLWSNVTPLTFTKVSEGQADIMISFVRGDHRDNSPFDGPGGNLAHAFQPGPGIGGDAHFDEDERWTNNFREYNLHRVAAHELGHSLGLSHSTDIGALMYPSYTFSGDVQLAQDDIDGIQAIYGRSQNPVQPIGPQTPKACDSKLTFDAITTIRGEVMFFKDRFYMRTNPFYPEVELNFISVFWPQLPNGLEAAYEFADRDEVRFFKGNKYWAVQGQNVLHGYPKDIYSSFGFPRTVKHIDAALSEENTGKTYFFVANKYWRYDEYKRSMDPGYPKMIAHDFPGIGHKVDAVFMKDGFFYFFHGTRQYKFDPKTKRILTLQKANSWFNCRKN
Protocol: (i) Collagenase Assay--Test Code 006
A collagenase assay was performed by a modification of the method of Harper, et al., Biochem., 10, 3035 (1971). In a typical assay (total volume of 0.45 ml), 100 μl of the activated enzyme was added to the ^14 C-labeled collagen fibrils (250 μl) followed by 100 μl of 50 mM cacodylate, pH 7.4, containing 5 mM calcium chloride. After incubation at 37° C. for 16 hours, the tubes were centrifuged in a Beckman microfuge for five minutes at full speed. An aliquot (200 μl) of the supernatant, representing collagenase digestion products of the fibril, was assayed for radioactivity. The effect of the test compound on collagen degradation by collagenase was examined as follows:
Varying concentrations of the test compound (in distilled water) were added to the assay tubes containing active collagenase (total volume 450 μl) and after 16 hours the amount of radioactivity in the supernatant was determined. Appropriate blanks and trypsin controls were run in parallel.
The result is expressed as an ID50 collagenase value which represents a ratio of the weight (μg) of the representative compound required for 50% inhibition of collagenase over the weight (μg) of 6,6,-[ureylenebis(m-phenylenecarbonylimino)]bis[4-hydroxy-2-naphthalenesulfonic acid]disodium salt required for 50% inhibition of collagenase.

[5] = Binding (competition) assay with 14C-6,6'-[ureylenebis(m-phenylenecarbonylimino)]bis[4-hydroxy-2-naphthalenesulfonic acid]disodium salt on tooth powder; settings: relative to 6,6'-[ureylenebis(m-phenylenecarbonylimino)]bis[4-hydroxy-2-naphthalenesulfonic acid]disodium salt; 1 mg tooth powder, PBS, 37° C., 60 minutes; >1 = less efficient
Description: Using (radioactive) ^14 C-6,6'-[ureylenebis(m-phenylenecarbonylimino)]bis[4-hydroxy-2-naphthalenesulfonic acid]disodium salt a binding (competition) assay procedure is established which involves an insoluble substrate such as tooth powder which will bind the ^14 C-6,6'-[ureylenebis(m-phenylenecarbonylimino)]bis[4-hydroxy-2-naphthalenesulfonic acid]disodium salt. The amount of ^14 C-6,6'-[ureylenebis(m-phenylenecarbonylimino)]bis[4-hydroxy-2-naphthalenesulfonic acid]disodium salt bound is determined by washing away the unbound radioactive compound and counting CPM (counts per minute) of the insoluble tooth powder/^14 C-6,6'-[ureylenebis(m-phenylenecarbonylimino)]bis[4-hydroxy-2-naphthalenesulfonic acid]disodium salt complex. […] The inhibiting effect of the test compound on binding compared to non-radioactive 6,6'-[ureylenebis(m-phenylenecarbonylimino)]bis[4-hydroxy-2-naphthalenesulfonic acid]disodium salt was determined as follows: A one mg amount of tooth powder was incubated in one ml of phosphate buffered saline (PBS) with 10 μg of ^14 C-6,6'-[ureylenebis(m-phenylenecarbonylimino)]bis[4-hydroxy-2-naphthalenesulfonic acid]disodium salt and varying dose amounts (ranging from 0 to 2 mg) of the same cold (non-radioactive) compound. […]

[6] = Binding to insoluble collagenous structures
[7] = mechanistic studies; cited from earlier work

CC(=O)N[C@@H](CS)C(=O)O [acetylcysteine]
effectiveness in treatment of acute and chronic corneal ulceration [1]: effective in the treatment of acute and chronic corneal ulceration | reduction of frequency of ulceration [2]: reduce the frequency of ulceration

sodium auriothiomalate
collagenase inhibition (in words) [3]: collagenase inhibitors

O=C(Nc1cccc(C(=O)Nc2ccc3cc(S(=O)(=O)O)cc(O)c3c2)c1)C(=O)Nc1cccc(C(=O)Nc2ccc3cc(S(=O)(=O)O)cc(O)c3c2)c1 [6,6'-[Oxalylbis(imino-m-phenylenecarbonylimino)]bis-[4-hydroxy-2-naphthalenesulfonic acid]disodium salt]
ID50 Collagenase Ratio [4]: 1.10 | ID50 Binding Ratio [5]: 1.00

N[C@@H](CS)C(=O)O [cysteine]
effectiveness in treatment of acute and chronic corneal ulceration [1]: effective in the treatment of acute and chronic corneal ulceration | collagenase inhibition (in words) [3]: collagenase inhibitors

O[C@H](CS)[C@H](O)CS (racemic) [dithiothreitol]
collagenase inhibition (in words) [3]: collagenase inhibitors

α2 -macroglobulin: Naturally occurring collagenase inhibitors include the serum components α2 -macroglobulin
collagenase inhibition (in words) [3]: collagenase inhibitors

O=C([O-])CN(CCN(CC(=O)[O-])CC(=O)[O-])CC(=O)[O-].[Ca+2].[Ca+2] [Calcium ethylenediaminetetraacetate]
reduction of frequency of ulceration [2]: reduce the frequency of ulceration

O=C(Nc1cccc(C(=O)Nc2ccc3cc(S(=O)(=O)O)cc(O)c3c2)c1)Nc1cccc(C(=O)Nc2ccc3cc(S(=O)(=O)O)cc(O)c3c2)c1 [6,6'-[ureylenebis(m-phenylenecarbonylimino)]bis[4-hydroxy-2-naphthalenesulfonic acid]disodium salt]
collagenase inhibition (in words) [3]: established as an inhibitor of the degradation of collagen | binding to insoluble collagenous structures [6]: will bind to insoluble collagenous structures such as teeth, dentin, gingiva and the like | character of binding (saturability, reversibility) [6]: saturable and reversible

Cc1ccc(C(=O)Nc2ccc(S(=O)(=O)O)c3cc(S(=O)(=O)O)cc(S(=O)(=O)O)c23)cc1NC(=O)c1cccc(NC(=O)Nc2cccc(C(=O)Nc3cc(C(=O)Nc4ccc(S(=O)(=O)O)c5cc(S(=O)(=O)O)cc(S(=O)(=O)O)c45)ccc3C)c2)c1 [Suramin]
collagenase inhibition (in words) [3]: not inhibiting the action of collagenase

Cc1cc(-c2ccc(/N=N/c3c(S(=O)(=O)O)cc4cc(S(=O)(=O)O)cc(N)c4c3O)c(C)c2)ccc1/N=N/c1c(S(=O)(=O)O)cc2cc(S(=O)(=O)O)cc(N)c2c1O [trypan blue]
collagenase inhibition (in words) [3]: inhibiting the activity of collagenase, or a proteinase contaminant in the collagenase preparation

c1cnc2c(c1)ccc1cccnc12 [1,10-phenanthroline]
collagenase inhibition (in words) [3]: collagenase inhibitors

F [Fluoride]
binding to enamel [7]: binds to enamel
